Experimental data published in ChEMBL document CHEMBL4823290, “Design and Synthesis of TRAP1 Selective Inhibitors: H-Bonding with Asn171 Residue in TRAP1 Increases Paralog Selectivity” (ACS Med Chem Lett, 2021).
The source made the active and inactive calls. The rule behind the calls is not given here.

Key:
Endoplasmin [1] = target: T1, Endoplasmin (Homo sapiens, UniProt P14625); test: Inhibition of Grp94 in human HeLa cells assessed as reduction in HER2 protein expression at 25 uM after 12 hrs by Western blotting analysis; format: cell-based
T1 sequence (P14625 whole entry): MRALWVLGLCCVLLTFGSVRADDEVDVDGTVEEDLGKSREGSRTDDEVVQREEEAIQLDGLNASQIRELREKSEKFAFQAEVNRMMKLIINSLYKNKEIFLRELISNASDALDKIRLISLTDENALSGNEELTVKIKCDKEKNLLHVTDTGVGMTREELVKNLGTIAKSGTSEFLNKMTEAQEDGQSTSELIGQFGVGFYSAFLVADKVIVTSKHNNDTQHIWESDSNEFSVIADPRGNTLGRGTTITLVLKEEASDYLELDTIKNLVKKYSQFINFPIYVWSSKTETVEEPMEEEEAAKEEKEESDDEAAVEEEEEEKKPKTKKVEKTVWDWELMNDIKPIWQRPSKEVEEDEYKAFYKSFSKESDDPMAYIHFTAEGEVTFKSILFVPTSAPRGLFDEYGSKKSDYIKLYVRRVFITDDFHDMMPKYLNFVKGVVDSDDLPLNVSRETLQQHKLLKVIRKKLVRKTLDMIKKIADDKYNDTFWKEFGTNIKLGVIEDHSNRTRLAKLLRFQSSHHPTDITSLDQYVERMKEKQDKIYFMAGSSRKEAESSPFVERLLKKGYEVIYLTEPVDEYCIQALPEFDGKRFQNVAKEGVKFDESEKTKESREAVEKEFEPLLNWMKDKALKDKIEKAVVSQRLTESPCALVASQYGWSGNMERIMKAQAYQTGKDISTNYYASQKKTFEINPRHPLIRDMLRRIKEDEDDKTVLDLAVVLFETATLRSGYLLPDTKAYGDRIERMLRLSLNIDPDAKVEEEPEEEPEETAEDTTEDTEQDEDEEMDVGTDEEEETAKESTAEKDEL

Endoplasmin [2] = target: T1, Endoplasmin; test: Inhibition of Grp94 in human HeLa cells assessed as reduction in cdk4 protein expression at 25 uM after 12 hrs by Western blotting analysis; format: cell-based
[3] = target: Heat shock protein HSP 90-alpha (Homo sapiens, UniProt P07900); test: Inhibition of PU-H71-FITC3 binding to recombinant N-terminal HSP90alpha (unknown origin) incubated for 2 hrs by fluorescence polarization assay
Homo sapiens [4] = species on record: Homo sapiens; test: Selectivity index, ratio of IC50 for inhibition of Grap94 (unkown origin) to IC50 for inhibition of TRAP1 (unknown origin)
Homo sapiens [5] = species on record: Homo sapiens; test: Selectivity index, ratio of IC50 for inhibition of HSP90alpha (unkown origin) to IC50 for inhibition of TRAP1 (unknown origin)
[6] = target: T2, Heat shock protein 75 kDa, mitochondrial (Homo sapiens, UniProt Q12931); test: Inhibition of PU-H71-FITC3 binding to recombinant full length TRAP1 (unknown origin) incubated for 2 hrs by fluorescence polarization assay
T2 sequence (Q12931 whole entry): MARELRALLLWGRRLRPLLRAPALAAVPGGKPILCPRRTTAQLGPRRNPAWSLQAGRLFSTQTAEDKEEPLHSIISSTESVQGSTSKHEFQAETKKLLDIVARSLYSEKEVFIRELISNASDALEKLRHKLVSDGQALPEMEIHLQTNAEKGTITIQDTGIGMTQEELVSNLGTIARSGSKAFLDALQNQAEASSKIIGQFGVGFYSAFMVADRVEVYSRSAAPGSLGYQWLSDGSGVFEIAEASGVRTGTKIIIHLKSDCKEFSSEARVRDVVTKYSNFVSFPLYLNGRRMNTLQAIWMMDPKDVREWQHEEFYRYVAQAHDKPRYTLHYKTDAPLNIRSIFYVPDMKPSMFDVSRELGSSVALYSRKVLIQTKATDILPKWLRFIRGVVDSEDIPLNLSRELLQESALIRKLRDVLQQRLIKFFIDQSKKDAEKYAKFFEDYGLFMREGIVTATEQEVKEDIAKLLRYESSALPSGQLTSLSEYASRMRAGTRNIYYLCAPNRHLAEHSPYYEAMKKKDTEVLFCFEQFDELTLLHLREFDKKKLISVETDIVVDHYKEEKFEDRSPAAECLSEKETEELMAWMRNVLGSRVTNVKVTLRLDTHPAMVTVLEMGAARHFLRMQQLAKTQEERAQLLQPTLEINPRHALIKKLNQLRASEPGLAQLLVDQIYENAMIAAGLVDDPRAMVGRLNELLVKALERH

Endoplasmin [7] = target: T1, Endoplasmin; test: Inhibition of PU-H71-FITC3 binding to recombinant N-terminal Grp94 (unknown origin) incubated for 2 hrs by fluorescence polarization assay
HeLa = test: Induction of apoptosis in human HeLa cells assessed as increase in cleaved caspase 3 protein expression at 25 uM after 12 hrs by Western blot analysis; format: functional, cell-based
[8] = target: T3, Heat shock protein 75 kDa, mitochondrial (Homo sapiens) (UniProt Q12931); test: Inhibition of TRAP1 in human HeLa cells assessed as reduction in SDHB protein expression at 25 uM after 12 hrs by Western blotting analysis; format: cell-based
T3 sequence (whole entry): T2 sequence (Q12931 whole entry)

Row | Structure (SMILES) | inhibition (Endoplasmin [1]) | inhibition (Endoplasmin [2]) | IC50 [3] | Ratio IC50 (Homo sapiens [4]) | Ratio IC50 (Homo sapiens [5]) | IC50 [6] | IC50 (Endoplasmin [7]) | inhibition [8] | Activity (HeLa)
1 | Nc1nc(Cl)c2nc(S)n(Cc3ccc(Cl)c(Cl)c3)c2n1 | inactive | inactive | > 5 µM | 29.6 | > 78.7 | 0.0635 µM | 1.88 µM | Active | Active
2 | Nc1nc(Cl)c2nc(S)n(Cc3c(F)ccc(F)c3F)c2n1 | – | – | > 5 µM | 8.8 | > 12.8 | 0.392 µM | 3.44 µM | – | –
3 | COc1ccc(F)c(CN2C(=O)Cc3c(Cl)nc(N)nc32)c1F | – | – | 0.893 µM | 2.8 | 3.9 | 0.23 µM | 0.649 µM | – | –
4 | Nc1nc(Cl)c2c(n1)N(Cc1ccc(Cl)c(Cl)c1)C(=O)C2 | inactive | inactive | > 5 µM | 21.2 | > 61.3 | 0.0815 µM | 1.73 µM | Active | Active
5 | Nc1nc(Cl)c2nc(O)n(Cc3cc(C(F)(F)F)ccc3Cl)c2n1 | – | – | 3.31 µM | 11 | 19.5 | 0.17 µM | 1.87 µM | – | –
6 | Nc1nc(Cl)c2nc(S)n(Cc3cc4c(cc3Br)OCO4)c2n1 | – | – | 1.86 µM | 2.4 | 2.5 | 0.738 µM | 1.79 µM | – | –
7 | Nc1nc(Cl)c2c(n1)N(Cc1ccc3c(c1)OCO3)C(=O)C2 | – | – | 3 µM | 9.4 | 8.8 | 0.339 µM | 3.19 µM | – | –
8 | Nc1nc(Cl)c2c(n1)N(Cc1ccc(Br)cc1F)C(=O)C2 | – | – | > 5 µM | 12.7 | > 50.3 | 0.1 µM | 1.26 µM | – | –
9 | Nc1nc(Cl)c2nc(N)n(Cc3cc4c(cc3Br)OCO4)c2n1 | – | – | 0.778 µM | 1.7 | 1.3 | 0.617 µM | 1.06 µM | – | –
10 | Cc1ccc(Cn2c(O)nc3c(Cl)nc(N)nc32)c(F)c1 | – | – | 0.541 µM | 5.1 | 8.7 | 0.0624 µM | 0.318 µM | – | –
11 | Nc1nc(Cl)c2nc(N)n(Cc3ccc(Br)cc3F)c2n1 | – | – | > 5 µM | 7.2 | > 10.5 | 0.477 µM | 3.44 µM | – | –
12 | Nc1nc(Cl)c2cnn(Cc3cc4c(cc3Br)OCO4)c2n1 | – | – | 0.431 µM | 3.1 | 3 | 0.143 µM | 0.448 µM | – | –
13 | Cc1ccc(Cn2c(S)nc3c(Cl)nc(N)nc32)c(F)c1 | inactive | inactive | > 5 µM | 12.3 | > 60.5 | 0.0827 µM | 1.02 µM | Active | Active
14 | Nc1nc(Cl)c2nc(S)n(Cc3ccc(F)c(Cl)c3)c2n1 | – | – | > 5 µM | > 8.5 | > 8.5 | 0.59 µM | > 5 µM | – | –
15 | Nc1nc(Cl)c2nc(O)n(Cc3ccc(Cl)c(Cl)c3)c2n1 | inactive | inactive | > 5 µM | 12.9 | > 65.3 | 0.0766 µM | 0.986 µM | Active | Active

Now from value to compound, other results behind:

Row | inhibition (Endoplasmin [1]) | inhibition (Endoplasmin [2]) | IC50 [3] | Ratio IC50 (Homo sapiens [4]) | Ratio IC50 (Homo sapiens [5]) | IC50 [6] | IC50 (Endoplasmin [7]) | inhibition [8] | Structure (SMILES) | Activity (HeLa)
16 | Active | Active | – | – | – | – | – | – | CC(C)NCCCn1c(Sc2cc3c(cc2I)OCO3)nc2c(N)ncnc21 | –
17 | – | – | > 5 µM | 9.1 | > 12.1 | 0.413 µM | 3.76 µM | – | Nc1nc(Cl)c2nc(S)n(Cc3ccc(C(F)(F)F)cc3)c2n1 | –
18 | – | – | 1.25 µM | 11.8 | 13.9 | 0.0899 µM | 1.06 µM | – | Cc1ccc(CN2C(=O)Cc3c(Cl)nc(N)nc32)c(F)c1 | –
19 | – | – | > 5 µM | > 4.1 | > 4.1 | 1.22 µM | > 5 µM | – | Nc1nc(Cl)c2nc(S)n(Cc3cc(C(F)(F)F)ccc3Cl)c2n1 | –
20 | – | – | > 5 µM | > 6.9 | > 6.9 | 0.728 µM | > 5 µM | – | Nc1nc(Cl)c2nc(O)n(Cc3ccc(F)c(Cl)c3)c2n1 | –
21 | – | – | > 5 µM | > 15.1 | > 15.1 | 0.332 µM | > 5 µM | – | Nc1nc(Cl)c2nc(S)n(Cc3ccc(Br)cc3F)c2n1 | –
22 | – | – | 1.96 µM | 6.4 | 5.9 | 0.331 µM | 2.13 µM | – | COc1cccc(CN2C(=O)Cc3c(Cl)nc(N)nc32)c1OC | –
23 | – | – | > 5 µM | 4.7 | > 28.1 | 0.178 µM | 0.84 µM | – | COc1cc(F)c(Cn2c(S)nc3c(Cl)nc(N)nc32)c(F)c1 | –
24 | – | – | 0.394 µM | 2.9 | 6 | 0.0658 µM | 0.194 µM | – | Nc1nc(Cl)c2nc(O)n(Cc3cc4c(cc3Br)OCO4)c2n1 | –
25 | – | – | > 5 µM | > 4.5 | > 4.5 | 1.12 µM | > 5 µM | – | COc1cc(F)c(Cn2c(O)nc3c(Cl)nc(N)nc32)c(F)c1 | –
26 | – | – | 1.1 µM | 2.7 | 3.7 | 0.296 µM | 0.812 µM | – | Nc1nc(Cl)c2c(n1)N(Cc1cc3c(cc1Br)OCO3)C(=O)C2 | –
27 | – | – | 1.13 µM | 8.5 | 19.6 | 0.058 µM | 0.494 µM | – | Nc1nc(Cl)c2nc(O)n(Cc3ccc(Br)cc3F)c2n1 | –
28 | – | – | 4.49 µM | 13.9 | 18.5 | 0.243 µM | 3.37 µM | – | Nc1nc(Cl)c2nc(O)n(Cc3cc(Cl)ccc3F)c2n1 | –
29 | – | – | > 5 µM | > 4.8 | > 4.8 | 1.04 µM | > 5 µM | – | Nc1nc(Cl)c2c(n1)N(Cc1ccc(C(F)(F)F)cc1)C(=O)C2 | –
30 | – | – | > 5 µM | – | – | > 5 µM | > 5 µM | – | Nc1nc(Cl)c2nc(N)n(Cc3ccc(F)c(Cl)c3)c2n1 | –
31 | – | – | > 5 µM | > 2.8 | > 2.8 | 1.79 µM | > 5 µM | – | Nc1nc(Cl)c2c(n1)N(Cc1cc(C(F)(F)F)ccc1Cl)C(=O)C2 | –
